From patent US20230058178A1, “METHODS AND MATERIALS FOR TREATING NERVE INJURY AND/OR PROMOTING WOUND HEALING” (The Penn State Research Foundation, priority 2020, published 2023)

What was measured:
[1] = test system: sciatic nerve crush injury; assay: Triceps surae muscle tension immediately after sciatic nerve crush injury; type: in vivo, rat
Procedure: (§1) Sciatic nerve innervates triceps surae muscle and thus sciatic nerve conduction can be measured in terms of triceps surae muscle contraction. As shown in this experimental setup (FIG. 2) sciatic nerve was electrically stimulated proximal to crush site, and triceps surae muscle tension was measured by force transducer (FT10; Grass Instruments).
(§2) Briefly, Sprague-Dawley (SD) rats were anaesthetized with 3-4% isoflurane, the trachea was cannulated, and the lungs were mechanically ventilated (Harvard Apparatus) with oxygen balanced vaporized 2% isoflurane. The sciatic nerve and triceps surae muscles were exposed by blunt dissection and the calcaneal tendon was severed and linked with braided fishing line to a force transducer. A shielded stimulating electrode was placed under sciatic nerve and injury was performed distal to a stimulating electrode. Sciatic nerve underwent a standardized crush injury with blunt forcep (Miltex #18-1107) and jig or laceration injury with fine scissors. Sciatic nerve crush injury was done 3 mm proximal to trifurcation. The triceps surae muscles were contracted for 10 seconds at 40 Hz, 0.1 ms pulse, and a voltage two times above the motor threshold.

nerve transection = assay: Triceps surae muscle tension after sciatic nerve transection (laceration) injury; type: in vivo, rat; settings: 150 μg/kg i.p.
Procedure: as §1, §2

[2] = test system: sciatic nerve crush injury; assay: Triceps surae muscle tension 3 days post sciatic nerve crush injury; type: in vivo, rat; settings: 3 days post crush
Text: Sciatic nerve crush injury was done 3 mm proximal to trifurcation.
Anesthesia was maintained with 2% isoflurane.

[3] = test system: Dorsal skin excision wounds; assay: Dorsal skin excision wound closure; type: in vivo, mouse
Procedure: Dorsal skin excision wounds (5-mm diameter) were made on 7-8-week-old wild-type C57BL/6 mice (FIG. 15). Mice were systemically administered saline (control) or 80 μg of 4-AP daily for 14 days. All mice were subjected to functional wound healing and tissue regeneration image-based assays at days 0, 3, 7, 10, and 14. The wound size of each mouse was measured and compared to zero day wound diameter from digital images. The percentage of wound closure was calculated by using the formula:
Wound closure (%)=(area of original wound−area of actual wound)/area of original wound×100.

[4] = 150 μg/kg i.p., SD rat
Procedure: 4-AP stock was prepared in saline and i.p. dose of 150 μg/kg was administered in rats.
Circulating level of 4-AP in rat serum sample was evaluated using ABSciex 4000 Q Trap mass spectrometry coupled with a Waters Acquity UPLC separation (UPLC/MS/MS) system in the Mass Spectrometry Core Facility in College of Medicine of Penn State University.
4-AP-d4 was used as an internal standard. The multiple reaction monitoring mode (MRM) was used to analyze and quantify 4-AP and 4-AP-d4, with the transitions of m/z 95>78 for 4-AP and 99>82 for 4-AP-d4. 4-AP was quantified by using a standard curve which was constructed by plotting the ratio of the peak area of 4-AP to the peak area 4-AP-d4 versus 4-AP concentration (0.01 μM-20 μM). All peaks were integrated and quantified by ABSciex Multiquan 2.1 software.

[5] = test system: sciatic nerve crush injury; settings: systemic administration (Tseng et al. 2016); cited from earlier work
[6] = cited from earlier work

For Nc1ccncc1 [4-AP, 4-aminopyridine], the muscle tension ([1]; 30 minutes after 4-AP 150 μg/kg i.p. or local thermogel, 2100 g before injury, none post crush) was 900 g, the “Muscle response increase over a crush” value ([1]; systemic (150 μg/kg i.p.) or local treatment) was 800% and the “AUC of muscle tension” value ([1]; systemic or local treatment) was “significantly increased”. For the same molecule, the peak muscle tension ([1]; systemic or local treatment) was “significantly increased”, the “restoration of nerve conduction upon treatment” value (nerve transection) was “does not occur” and the muscle tension ([2]; lower stimulation voltage, 30 minutes after 150 μg/kg i.p. or local thermogel) was 250 g. The “AUC of muscle tension” value ([2]; systemic or local treatment) was “significantly increased”, the “Muscle response increase over a crush” value ([2]; systemic or local treatment) was 80% and the peak muscle tension ([2]; systemic or local treatment) was “significantly increased”. The “reduction in wound area as compared to control animals” value ([3]; by seven days, systemic delivery) was “at least 50%”, the “diameter/width of the wound area” value ([3]; day 3, 5 mm wound at day 0, 80 μg daily systemic (saline 5 mm)) was 4.0 mm and the “diameter/width of the wound area” value ([3]; day 7, 80 μg daily systemic (saline 2.7 mm)) was 1.5 mm. For the same molecule, the “diameter/width of the wound area” value ([3]; day 10, 80 μg daily systemic (saline 1.0)) was 0.3 mm, the “wound area reduction as compared to control animals” value ([3]; in three days, systemic delivery) was “at least 10%” and the “wound healing compared to saline treated mice” value ([3]; systemic administration) was “accelerates the wound healing process”. The “4-AP concentration in serum” value [4] was “tolerable 4-AP concentration in serum”, the “motor functional recovery after sciatic nerve crush injury” value [5] was “improve motor functional recovery after sciatic nerve crush injury” and the “human tolerable limit of serum 4-AP” value [6] was 100 ng/mL.
